One molecule from article PMC3919815, “Anti-Tumor Effects of Novel 5-O-Acyl Plumbagins Based on the Inhibition of Mammalian DNA Replicative Polymerase Activity” (PLoS ONE, 2014) can be followed below.

Data set [1] is described as follows: Stability under basic conditions (Triton B, UV-vis). In kind it is physicochemical. To be noted: 1 equivalent Triton B in 1,4-dioxane and MeOH, 1.1×10^−3 M, 25°C. As to the method:
A 2.2×10^−2 M solution of Triton B in MeOH was added to a 2.2×10^−2 M solution of each sample in 1,4-dioxane. Then, the mixture was diluted with 1,4-dioxane to a concentration of 1.1×10^−3 M. Then, the stability of each compound was monitored by UV-vis spectroscopy. UV-vis spectra were measured at 25°C on a UV-vis spectrophotometer (JASCO V-650, Tokyo, Japan). For comparison, UV-vis spectra of 1.1×10^−3 M solution of C18:1-acyl plumbagin (2f), and C18:1-acyl juglone (5f) in 1,4-dioxane and MeOH (19/1, v/v) were measured.

Data set [2] relates to nine human cancer cell lines. Put plainly: Cancer cell viability, MTT assay, summary over the panel. In kind it is cell-based. To be noted: range over nine cell lines, 48 h. As to the method: The following human cancer cell lines were obtained from the American Type Culture Collection (Manassas, VA, USA): lung (A549), prostate (DU145 and PC3), colon (HCT116 and HT-29), cervix (HeLa), hepatocellular liver (HepG2), breast (MCF-7), and pancreatic cancer (PANC-1). These cells were cultured in RPMI 1640 medium supplemented with 10% fetal bovine serum, penicillin (100 units/mL), streptomycin (100 µg/mL), and 1.6 mg/mL NaHCO3 at 37°C in a humid atmosphere of 5% CO2/95% air. For the cell viability assay, cells were seeded at 1×10^3 cells/well in a 96-well microplate with various concentrations of the test compounds, and incubated for 48 h. MTT (3-(4,5-dimethylthiazol-2-yl)-2,5-diphenyl tetrazolium bromide) solution was added to a final concentration 0.6 mg/mL in Milli-Q purified water for 2 h, after which time the medium was discarded and the cells lysed in DMSO. A540 was then measured in a microplate reader (Model 680, Bio-Rad Laboratories, Hercules, CA, USA).

The target in another data set is T1, Human pol λ (Homo sapiens, UniProt Q9UGP5).
T1 construct: His tag; made in house
T1 sequence (Q9UGP5 1-575): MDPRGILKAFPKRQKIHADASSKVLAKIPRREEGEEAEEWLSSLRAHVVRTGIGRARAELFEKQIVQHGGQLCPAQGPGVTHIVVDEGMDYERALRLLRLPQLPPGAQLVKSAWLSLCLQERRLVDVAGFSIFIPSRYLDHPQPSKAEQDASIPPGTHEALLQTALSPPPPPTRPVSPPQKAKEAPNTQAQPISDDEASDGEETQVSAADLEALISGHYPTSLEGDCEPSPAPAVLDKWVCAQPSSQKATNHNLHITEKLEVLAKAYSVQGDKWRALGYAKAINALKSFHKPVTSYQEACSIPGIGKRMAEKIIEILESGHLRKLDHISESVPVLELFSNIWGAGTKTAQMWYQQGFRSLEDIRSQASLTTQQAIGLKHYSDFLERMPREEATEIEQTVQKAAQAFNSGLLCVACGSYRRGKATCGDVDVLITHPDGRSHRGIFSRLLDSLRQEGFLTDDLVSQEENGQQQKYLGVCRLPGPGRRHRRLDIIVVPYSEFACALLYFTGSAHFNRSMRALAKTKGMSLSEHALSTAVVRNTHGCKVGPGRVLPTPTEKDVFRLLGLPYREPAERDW
Put plainly: DNA polymerase activity inhibition. In kind it is biochemical. As to conditions: 0.05 units enzyme; mean ± SD (n = 3). From the text: (§1) Pol α was purified from calf thymus by immunoaffinity column chromatography as described by Tamai et al.. Recombinant rat pol β was purified from Escherichia coli JMpβ5 as described by Date et al.. The human pol γ catalytic gene was cloned into pFastBac. Histidine-tagged enzyme was expressed using the BACTO-BAC HT Baculovirus Expression System according to the manufacturer's instructions (Life Technologies, Frederick, MD, USA) and purified using ProBound resin (Invitrogen Japan, Tokyo Japan). Human pols δ and ε were purified by nuclear fractionation of human peripheral blood cancer cells (Molt-4) using the second subunit of pol δ and ε-conjugated affinity column chromatography, respectively. A truncated form of human pol η (residues 1–511) tagged with His6 at its C-terminal was expressed in E. coli cells and purified as described by Kusumoto et al.. A recombinant mouse pol ι tagged with His6 at its C-terminal was expressed and purified by Ni–NTA column chromatography. A truncated form of pol κ (residues 1–560) with 6× His-tags attached at the C-terminus was overexpressed in E. coli and purified as described by Ohashi et al.. Recombinant human His-pol λ was overexpressed and purified according to a method described by Shimazaki et al.. Recombinant human His-pol μ was overexpressed in E. coli BL21 and purified using Glutathione Sepharose 4B (GE Healthcare Bio-Science Corp., Piscataway, NJ, USA) column chromatography according to the method for pol λ preparation by Shimazaki et al.. Pol α from a higher plant, cauliflower, was purified from the inflorescence structure according to the methods outlined by Sakaguchi et al.. Recombinant rice (Oryza sativa L. cv. Nipponbare) pol λ tagged with His6 at the C-terminus was expressed in E. coli and purified as described by Uchiyama et al.. Calf TdT, Taq pol, T4 pol, T7 RNA polymerase, and T4 polynucleotide kinase were purchased from Takara Bio Inc. (Kyoto, Japan). The Klenow fragment of pol I from E. coli was purchased from Worthington Biochemical Corp. (Freehold, NJ, USA). Bovine pancreas deoxyribonuclease I was obtained from Stratagene Cloning Systems (La Jolla, CA, USA).
(§2) The reaction mixtures for calf pol α, rat pol β, plant pol α, and prokaryotic pols have been described previously, [35]; those for pol γ as well as pols δ and ε were previously described by Umeda et al. and Ogawa et al., respectively. Those for pols η, ι, and κ were the same as for pol α, and those for pols λ and μ were the same as for pol β. For the pol reactions, poly(dA)/oligo(dT)18 (A/T, 2/1) and dTTP were used as the DNA template-primer substrate and nucleotide (dNTP; 2′-deoxynucleoside-5′-triphosphate) substrate, respectively. For the TdT reactions, oligo(dT)18 (3′-OH) and dTTP were used as the DNA primer substrate and nucleotide substrate, respectively.
(§3) The chemically synthesized 5-O-acyl plumbagins (2a–j) were dissolved in distilled dimethyl sulfoxide (DMSO) to various concentrations and sonicated for 30 s. Subsequently, 4 µL aliquots were mixed with 16 µL of each enzyme (0.05 units) in 50 mM Tris-HCl at pH 7.5, containing 1 mM dithiothreitol, 50% glycerol (by vol), and 0.1 mM ethylenediaminetetraacetic acid and held at 0°C for 10 min. These inhibitor-enzyme mixtures in 8 µL volumes were next added to 16 µL of enzyme standard reaction mixture and incubated at 37°C for 60 min, except for Taq pol, which was incubated at 74°C for 60 min. Activity without inhibitor was considered 100%, and the relative activity was determined for each inhibitor concentration. One unit of pol activity was defined as the amount of each enzyme that catalyzed the incorporation of 1 nmol dTTP into synthetic DNA template primers in 60 min, at 37°C, and under standard reaction conditions, [35].

In another data set the target is T2, Human pol γ (Homo sapiens, UniProt P54098).
T2 construct: His tag; made in house
T2 sequence (P54098 whole entry): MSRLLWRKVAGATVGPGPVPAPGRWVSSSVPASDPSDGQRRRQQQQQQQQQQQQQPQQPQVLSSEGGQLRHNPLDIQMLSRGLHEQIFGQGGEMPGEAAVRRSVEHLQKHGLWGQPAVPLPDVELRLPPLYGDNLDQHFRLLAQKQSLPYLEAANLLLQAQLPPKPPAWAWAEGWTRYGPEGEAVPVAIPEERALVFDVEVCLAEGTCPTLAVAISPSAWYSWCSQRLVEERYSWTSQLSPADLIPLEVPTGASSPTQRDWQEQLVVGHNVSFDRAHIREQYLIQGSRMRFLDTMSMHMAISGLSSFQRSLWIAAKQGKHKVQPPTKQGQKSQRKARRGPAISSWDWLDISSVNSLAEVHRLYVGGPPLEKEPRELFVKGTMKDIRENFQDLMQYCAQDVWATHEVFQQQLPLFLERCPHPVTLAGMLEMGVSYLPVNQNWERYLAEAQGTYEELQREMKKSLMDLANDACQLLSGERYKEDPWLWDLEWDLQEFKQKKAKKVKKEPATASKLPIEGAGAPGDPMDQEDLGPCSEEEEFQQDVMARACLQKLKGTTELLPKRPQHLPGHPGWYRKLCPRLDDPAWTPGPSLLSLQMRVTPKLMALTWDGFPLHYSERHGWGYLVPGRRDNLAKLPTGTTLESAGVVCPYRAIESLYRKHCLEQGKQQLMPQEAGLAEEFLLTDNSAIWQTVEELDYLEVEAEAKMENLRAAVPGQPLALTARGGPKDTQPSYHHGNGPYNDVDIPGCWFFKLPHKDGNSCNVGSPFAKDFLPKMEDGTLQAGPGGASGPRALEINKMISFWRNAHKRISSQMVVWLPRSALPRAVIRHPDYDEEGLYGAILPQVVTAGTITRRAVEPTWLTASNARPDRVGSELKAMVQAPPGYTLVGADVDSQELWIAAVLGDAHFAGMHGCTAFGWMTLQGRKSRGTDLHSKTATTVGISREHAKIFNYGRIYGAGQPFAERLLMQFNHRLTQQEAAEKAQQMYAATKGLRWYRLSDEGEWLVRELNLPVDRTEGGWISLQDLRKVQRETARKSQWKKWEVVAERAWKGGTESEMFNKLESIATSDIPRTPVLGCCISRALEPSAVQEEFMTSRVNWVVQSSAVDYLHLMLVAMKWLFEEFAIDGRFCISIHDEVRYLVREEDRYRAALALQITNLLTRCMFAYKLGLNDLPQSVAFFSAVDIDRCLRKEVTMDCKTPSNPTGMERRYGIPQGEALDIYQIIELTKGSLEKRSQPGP
Put plainly: DNA polymerase activity inhibition. In kind it is biochemical.
From the text: as §1, §2, §3

The structures appear in SMILES notation.

In the case of `CCCCCCCC/C=C\CCCCCCCC(=O)Oc1cccc2c1C(=O)C=C(C)C2=O` [2f, 5-O-oleoyl-2-methyl-1,4-naphthoquinone], the “stability under basic conditions (UV spectra)” value in data set [1] is on record as “Almost no changes in UV spectra”. Further, the LD50 values in data set [2] was 2.9 to 21.0 µM. In addition, the IC50 turned out to be 9.2 ± 0.43 µM on Human pol λ and 4.5 ± 0.4 µM against Human pol γ (0.05 units enzyme, mean ± SD (n = 3)). At Human pol γ (10 µM compound, Fig. 4), the “inhibition of pol γ relative activity (in words)” value is “strongest inhibition”.

The term IC50 denotes the concentration at which inhibition is half-maximal.
